# “Also recorded” adds a separate entry of the source.
# Assays:
# [1] = tested on: rats subjected to carrageenan insult to the right hind paw; test: Randall-Selitto paw pressure test, carrageenan-induced hyperalgesia in rats; format: in vivo, rat
# Description: Rats. Male Wistar rats (170-190 g) were provided by Charles River Laboratories or Butantan Institute Animal Facility and housed in a temperature-controlled (22±1° C.) and light-controlled (12/12 h light/dark cycle) room. All rats were housed in their surrounding for at least 3 days. Groups of 5-6 rats were used.
# Drugs Used. 0.1 ml saline (control), carrageenan (200 μg for rats, 100 μg for mice; Marine Colloids), or prostaglandin E2 (100 ng, Sigma) was administered by intraplantar injection into the right hind paw to induce hyperalgesia. These doses were chosen based on previous studies by our laboratory groups (Aley K O, et al., (2000) Chronic hypersensitivity for inflammatory nociceptor sensitization mediated by the epsilon isozyme of protein kinase C. The Journal of neuroscience: the official journal of the Society for Neuroscience 20: 4680-4685; Konno K, et al., (2008) Crotalphine, a novel potent analgesic peptide from the venom of the South American rattlesnake Crotalus durissus terrificus. Peptides 29: 1293-1304).
# (§1) Alda-1 dose (2 mg/kg/per injection, dissolved in 50% PEG/50% DMSO) was established in preliminary studies and given in multiple doses due to its estimated short half-life. Alda-1 was injected subcutaneously to the dorsal side of the neck 15 minutes before carrageenan or saline, and again at 30 and 150 minutes after carrageenan, prostaglandin E2 or saline injection. One subset of animals received Alda-1 only 30 and 150 minutes after carrageenan injection. Where indicated, naloxone (1 mg/kg per injection) or vehicle (saline) was given 10 minutes prior to each Alda-1 treatment to the dorsal side of the neck.
# Nociception Assessment. The experimental performer was blinded to both genotype and/or treatments. Nociceptive response was assessed by the von Frey method for mice and the Randall-Selitto method for rats immediately before and 180 minutes after carrageenan or prostaglandin E2 injection. Both mice and rats were acclimated to the testing equipment one day before baseline testing.
# Randall-Selitto method: Nociceptive threshold was determined using the Randall-Selitto paw pressure test (Ugo-Basile), as previously described (Gutierrez V P, et al., (2008) Crotalphine induces potent antinociception in neuropathic pain by acting at peripheral opioid receptors. European journal of pharmacology 594: 84-92). The baseline values varied between 65-75 g of force. Animals with baseline out of this range (about 10%) were excluded prior to initiating the study in order to achieve uniform testing.
# acetaldehyde = test: Tissue acetaldehyde measurement in paw by LC-MS/MS; format: in vivo, rat; details: rats, Alda-1 versus carrageenan alone
# Description: Tissue Acetaldehyde Measurements. Paw samples were quickly sealed in microcentrifuge tubes, weighed and 3 volumes (v/w) of 0.75 mg/mL Liberase T L (Roche, Indianapolis, Ind.) was added for overnight digestion at 37° C. Acetaldehyde standard solutions (100-5000 ng/mL) and the tissue samples were reacted with saturated 2,4 dinitrophenylhydrazine solution.
# To establish LC-MS/MS conditions, the standard of acetaldehyde 2,4-dinitrophenyl-hydrazine (DNPH) was used. Chromatograms of standards were used to establish characteristic retention times of acetaldehyde, and verified the MS signal was linear over the range of 0.1-5 μg/mL. The acetaldehyde peak area derivatives were calculated and plotted against the concentration of the calibration standards using Analyst®1.5.1 software.
# Aliquots (30 μL) were taken from each paw homogenate sample. Acetaldehyde in samples of paw homogenate was extracted by adding methanol containing 40 μg/mL DNPH (150 μL). Both unknown samples and standards were vortexed and centrifuged to separate the precipitate. Ten microliters of sample extracts were injected into LC MS/MS for analysis. Automatic peak detection, integration and data processing were performed by the AB SCIEX Analyst 1.5.1 software package. Concentrations of acetaldehyde were calculated by plotting peak area of unknown samples against a standard curve. […]
# ALDH2 *1/*2 mice = test: Acetaldehyde vapor experiments with sub-threshold carrageenan, von Frey nociception; format: in vivo, mouse; details: ALDH2 *1/*2 mice exposed to acetaldehyde vapor, with Alda-1
# Description: von Frey hair testing method: Hind paw nociception was assessed with six different von Frey hairs (0.03, 0.17, 0.41, 0.69, 1.20 and 1.48 g). Mice were placed individually in a plastic cage with a wire mesh bottom. After acclimation for at least 15 min, a von Frey hair was pressed perpendicularly against the plantar skin surface and held for approximately 5 seconds until hair slightly buckled. Using the same stimulation intensity […], each individual hair was applied six times to each hind paw at intervals of several seconds.
# Since the response to each von Frey stimulus is fairly subjective, we used a method of objectifying these nociceptive responses by assigning a specific number to the response. Our scoring system consisted of: […], 1=withdraws paw from hair and 0=immediate flinching or hind paw licking. This method was previously shown by others to provide a reliable, objective assessment of pain response using von Frey hairs (Dale C S, et al., (2009) Analgesic properties of S100A9 C-terminal domain: a mechanism dependent on calcium channel inhibition. Fundamental & clinical pharmacology 23: 427-438; Takasaki I, et al., (2000) Allodynia and hyperalgesia induced by herpes simplex virus type-1 infection in mice. Pain 86: 95-101).
# Acetaldehyde Experiments. […] A subset of these mice was exposed to acetaldehyde vapor with or without Alda-1. […]
# [2] = Half-life of Alda-1 (preliminary studies); format: in vivo; details: estimated; reason for multiple doses
# Description: as §1
# [3] = previously shown (Chen 2008; Koda 2010); cited from earlier work
# mutant ALDH2*2 = target: T1, mutant ALDH2*2 (Homo sapiens, UniProt P05091, E504K); details: Perez-Miller et al, 2010; cited from earlier work
# T1 sequence (P05091 18-517 E504K): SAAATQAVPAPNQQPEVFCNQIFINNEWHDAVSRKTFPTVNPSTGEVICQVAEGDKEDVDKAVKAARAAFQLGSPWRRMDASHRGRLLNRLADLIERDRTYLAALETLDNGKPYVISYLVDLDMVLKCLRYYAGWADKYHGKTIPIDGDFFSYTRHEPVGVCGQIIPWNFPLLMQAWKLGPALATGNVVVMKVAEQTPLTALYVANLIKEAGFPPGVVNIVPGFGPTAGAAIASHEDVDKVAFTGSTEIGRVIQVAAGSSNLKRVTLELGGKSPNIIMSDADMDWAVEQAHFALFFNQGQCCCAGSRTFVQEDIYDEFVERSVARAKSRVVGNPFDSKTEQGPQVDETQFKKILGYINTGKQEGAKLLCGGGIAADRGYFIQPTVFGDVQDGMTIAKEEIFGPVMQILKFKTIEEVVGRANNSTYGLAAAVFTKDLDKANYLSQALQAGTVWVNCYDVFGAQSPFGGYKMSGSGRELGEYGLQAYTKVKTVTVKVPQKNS
compound,measurement,setting,value
"O=C(NCc1ccc2c(c1)OCO2)c1c(Cl)cccc1Cl [Alda-1, N-(1,3-benzodioxol-5-ylmethyl)-2,6-dichlorobenzamide]",Nociceptive threshold when Alda-1 is given after the insult,"[1]; Alda-1 2 mg/kg s.c. only 30 and 150 minutes after carrageenan, Randall-Selitto, P<0.0001, 2 mg/kg",increased the nociceptive threshold; also recorded: significantly increased nociceptive threshold
same,Nociceptive threshold (FIG. 1B),"[1]; carrageenan insult, Alda-1 2 mg/kg s.c., 3 hours after insult, P<0.001",significantly increased nociceptive threshold
same,Increase of nociceptive threshold,"[1]; carrageenan-induced model, Alda-1 2 mg/kg s.c. 15 min before and 30 and 150 min after insult, tested 3 hours after insult",2 fold
same,Reduction of carrageenan-induced hyperalgesia compared with atenolol or celecoxib,"[1]; comparison to previous publication using the same rat hyperalgesia model (Chacur et al, 2003)",more effective than atenolol or celecoxib
same,Effect of Alda-1 on nociceptive threshold in the presence of naloxone,"[1]; naloxone 1 mg/kg s.c. 10 minutes before each Alda-1 treatment, Alda-1 after carrageenan",not blunted
same,Decrease of the level of acetaldehyde in paw,acetaldehyde; carrageenan-induced hyperalgesia,~50%
same,Carrageenan-induced acetaldehyde levels in inflamed paw (FIG. 2F),acetaldehyde; P<0.05,significantly reduced
same,Acetaldehyde-exacerbated hyperalgesia after carrageenan (50 μg),ALDH2 *1/*2 mice,rescued; also recorded: reversed
same,Half-life,[2],short
same,Cardiovascular benefits after acute myocardial infarction,[3],reducing infarct size and arrhythmias
same,Effect on activity of mutant ALDH2*2,mutant ALDH2*2,corrects ALDH2 inactivity

# Reference: patent publication US9545393B2, “Methods and compositions for treating pain” (The Board of Trustees of the Leland Stanford Junior …, priority 2012, dated 2017)
